Measurements published in patent publication US8772250B2, “Compositions and methods for treating ischemia and ischemia-reperfusion injury” (Ischemix, LLC, priority 2010, dated 2014).
Read-outs that look alike come from different tables or passages of the source.

Assay: Pharmacokinetic evaluation in humans
Format: in vivo
Conditions: human; for CL renal: plasma and urine; for AUC(0-inf) / clearance / Cmax / Vd / half-life / AUC(0-t): plasma
Procedure: Plasma and urine RLip-EA-OH concentrations were measured at BASi, Inc. (West Lafayette, Ind.) using a LC/MS/MS method with positive turbo ion spray, in the multiple reaction-monitoring mode. The quantifiable range for human plasma was 1.00 to 500 ng/mL and QC samples were included at 3.00, 75.0 and 375 ng/mL.
The PK population included subjects who received RLip-EA-OH and had ≧1 post-dose PK measurement. […] Plasma samples from 24 subjects (6 RLip-EA-OH subjects per cohort) were analyzed (Tables 16 and 17).

C[C@H](NC(=O)[C@H](CCC(=O)O)NC(=O)CCCC[C@@H]1CCSS1)C(=O)O [RLip-EA-OH, N-(R)-lipoyl-L-glutamyl-L- alanine]
CL renal (20 mg, noncompartmental, read-out: Renal clearance, Mean (SD) (converted)): 168 mL/min | CL renal (20 mg, noncompartmental, read-out: Renal clearance, Median (converted)): 186 mL/min | CL renal (20 mg, noncompartmental, read-out: Renal clearance, Minimum, maximum): 80.8 to 255 mL/min | CL renal (60 mg, noncompartmental, read-out: Renal clearance, Mean (SD) (converted)): 181 mL/min | CL renal (60 mg, noncompartmental, read-out: Renal clearance, Median (converted)): 188 mL/min | CL renal (60 mg, noncompartmental, read-out: Renal clearance, Minimum, maximum): 135 to 220 mL/min | CL renal (150 mg, noncompartmental, read-out: Renal clearance, Mean (SD) (converted)): 124 mL/min | CL renal (150 mg, noncompartmental, read-out: Renal clearance, Median (converted)): 98 mL/min | CL renal (150 mg, noncompartmental, read-out: Renal clearance, Minimum, maximum): 58.5 to 243 mL/min | CL renal (300 mg, noncompartmental, read-out: Renal clearance, Mean (SD) (converted)): 141 mL/min | CL renal (300 mg, noncompartmental, read-out: Renal clearance, Median (converted)): 140 mL/min | CL renal (300 mg, noncompartmental, read-out: Renal clearance, Minimum, maximum): 85.2 to 200 mL/min | AUC(0-inf) (20 mg, compartmental, read-out: AUCinf, Mean (SD)): 621 ng·h/mL | AUC(0-inf) (20 mg, compartmental, read-out: AUCinf, Median): 614 ng·h/mL | AUC(0-inf) (20 mg, compartmental, read-out: AUCinf, Minimum, maximum): 474 to 787 ng·h/mL | clearance (20 mg, compartmental, read-out: CL, Mean (SD) (converted)): 557 mL/min | clearance (20 mg, compartmental, read-out: CL, Median (converted)): 545 mL/min | clearance (20 mg, compartmental, read-out: CL, Minimum, maximum): 423 to 703 mL/min | Cmax (20 mg, compartmental, read-out: Estimated Cmax, Mean (SD)): 2360 ng/mL | Cmax (20 mg, compartmental, read-out: Estimated Cmax, Median): 2480 ng/mL | Cmax (20 mg, compartmental, read-out: Estimated Cmax, Minimum, maximum): 1360 to 3340 ng/mL | Vd (20 mg, compartmental, read-out: Vss, Mean (SD)): 16 L | Vd (20 mg, compartmental, read-out: Vss, Median): 16 L | Vd (20 mg, compartmental, read-out: Vss, Minimum, maximum): 11 to 20 L | half-life (20 mg, compartmental, read-out: t1/2, Mean (SD) (converted)): 1 h | half-life (20 mg, compartmental, read-out: t1/2, Median (converted)): 0.8 h | half-life (20 mg, compartmental, read-out: t1/2, Minimum, maximum): 0.6 to 1.6 h | AUC(0-t) (20 mg, noncompartmental, read-out: AUC0-t, Mean (SD)): 581 ng·h/mL | AUC(0-t) (20 mg, noncompartmental, read-out: AUC0-t, Median): 556 ng·h/mL | AUC(0-t) (20 mg, noncompartmental, read-out: AUC0-t, Minimum, maximum): 466 to 717 ng·h/mL | AUC(0-inf) (20 mg, noncompartmental, read-out: AUCinf, Mean (SD)): 583 ng·h/mL | AUC(0-inf) (20 mg, noncompartmental, read-out: AUCinf, Median): 558 ng·h/mL | AUC(0-inf) (20 mg, noncompartmental, read-out: AUCinf, Minimum, maximum): 467 to 718 ng·h/mL | clearance (20 mg, noncompartmental, read-out: CL, Mean (SD) (converted)): 588 mL/min | clearance (20 mg, noncompartmental, read-out: CL, Median (converted)): 598 mL/min | clearance (20 mg, noncompartmental, read-out: CL, Minimum, maximum): 465 to 713 mL/min | Cmax (20 mg, noncompartmental, read-out: Cmax, Mean (SD)): 1830 ng/mL | Cmax (20 mg, noncompartmental, read-out: Cmax, Median): 1840 ng/mL | Cmax (20 mg, noncompartmental, read-out: Cmax, Minimum, maximum): 1220 to 2420 ng/mL | Vd (20 mg, noncompartmental, read-out: Vss, Mean (SD)): 18.5 L | Vd (20 mg, noncompartmental, read-out: Vss, Median): 18.7 L | Vd (20 mg, noncompartmental, read-out: Vss, Minimum, maximum): 14.4 to 22.4 L | half-life (20 mg, noncompartmental, read-out: t1/2, Mean (SD) (converted)): 0.86 h | half-life (20 mg, noncompartmental, read-out: t1/2, Median (converted)): 0.76 h | half-life (20 mg, noncompartmental, read-out: t1/2, Minimum, maximum): 0.61 to 1.41 h | clearance (20 mg, read-out: CL (converted)): 588 mL/min | AUC(0-inf) (60 mg, compartmental, read-out: AUCinf, Mean (SD)): 2260 ng·h/mL | AUC(0-inf) (60 mg, compartmental, read-out: AUCinf, Median): 1910 ng·h/mL | AUC(0-inf) (60 mg, compartmental, read-out: AUCinf, Minimum, maximum): 1770 to 3160 ng·h/mL | clearance (60 mg, compartmental, read-out: CL, Mean (SD) (converted)): 467 mL/min | clearance (60 mg, compartmental, read-out: CL, Median (converted)): 523 mL/min | clearance (60 mg, compartmental, read-out: CL, Minimum, maximum): 317 to 565 mL/min | Cmax (60 mg, compartmental, read-out: Estimated Cmax, Mean (SD)): 6870 ng/mL | Cmax (60 mg, compartmental, read-out: Estimated Cmax, Median): 6290 ng/mL | Cmax (60 mg, compartmental, read-out: Estimated Cmax, Minimum, maximum): 5520 to 9050 ng/mL | Vd (60 mg, compartmental, read-out: Vss, Mean (SD)): 14 L | Vd (60 mg, compartmental, read-out: Vss, Median): 15 L | Vd (60 mg, compartmental, read-out: Vss, Minimum, maximum): 10 to 17 L | half-life (60 mg, compartmental, read-out: t1/2, Mean (SD) (converted)): 1.5 h | half-life (60 mg, compartmental, read-out: t1/2, Median (converted)): 1.4 h | half-life (60 mg, compartmental, read-out: t1/2, Minimum, maximum): 1.1 to 2.6 h | AUC(0-t) (60 mg, noncompartmental, read-out: AUC0-t, Mean (SD)): 2250 ng·h/mL | AUC(0-t) (60 mg, noncompartmental, read-out: AUC0-t, Median): 1980 ng·h/mL | AUC(0-t) (60 mg, noncompartmental, read-out: AUC0-t, Minimum, maximum): 1720 to 3110 ng·h/mL | AUC(0-inf) (60 mg, noncompartmental, read-out: AUCinf, Mean (SD)): 2260 ng·h/mL | AUC(0-inf) (60 mg, noncompartmental, read-out: AUCinf, Median): 1980 ng·h/mL | AUC(0-inf) (60 mg, noncompartmental, read-out: AUCinf, Minimum, maximum): 1720 to 3110 ng·h/mL | clearance (60 mg, noncompartmental, read-out: CL, Mean (SD) (converted)): 467 mL/min | clearance (60 mg, noncompartmental, read-out: CL, Median (converted)): 505 mL/min | clearance (60 mg, noncompartmental, read-out: CL, Minimum, maximum): 322 to 582 mL/min | Cmax (60 mg, noncompartmental, read-out: Cmax, Mean (SD)): 6560 ng/mL | Cmax (60 mg, noncompartmental, read-out: Cmax, Median): 6840 ng/mL | Cmax (60 mg, noncompartmental, read-out: Cmax, Minimum, maximum): 5190 to 7990 ng/mL | Vd (60 mg, noncompartmental, read-out: Vss, Mean (SD)): 14.9 L | Vd (60 mg, noncompartmental, read-out: Vss, Median): 14.8 L | Vd (60 mg, noncompartmental, read-out: Vss, Minimum, maximum): 11.3 to 18.6 L | half-life (60 mg, noncompartmental, read-out: t1/2, Mean (SD) (converted)): 1.21 h | half-life (60 mg, noncompartmental, read-out: t1/2, Median (converted)): 1.26 h | half-life (60 mg, noncompartmental, read-out: t1/2, Minimum, maximum): 0.84 to 1.5 h | AUC(0-inf) (150 mg, compartmental, read-out: AUCinf, Mean (SD)): 7030 ng·h/mL | AUC(0-inf) (150 mg, compartmental, read-out: AUCinf, Median): 6920 ng·h/mL | AUC(0-inf) (150 mg, compartmental, read-out: AUCinf, Minimum, maximum): 4890 to 9610 ng·h/mL | clearance (150 mg, compartmental, read-out: CL, Mean (SD) (converted)): 370 mL/min
